Converted amounts (≈) assume the structure as drawn. Like-named read-outs stand apart in the source and are kept apart here.
Tests used:
[1] = test system: Staphylococcus aureus Novb. Res (Novobiocin resistant); assay: MIC by agar-dilution, Staphylococcus aureus Novb. Res; type: cell-based; details: inoculum 10^4 CFU/spot, 37° C., 24 hours
Procedure: (§1) The following results were obtained on a standard in-vitro test system. The activity is described in terms of the minimum inhibitory concentration (MIC) determined by the agar-dilution technique with an inoculum size of 10^4 CFU/spot. Typically, compounds are active in the range 0.01 to 256 μg/ml.
(§2) Staphylococci were tested on agar, using an inoculum of 10^4 CFU/spot and an incubation temperature of 37° C. for 24 hours—standard test conditions for the expression of methicillin resistance.

[2] = test system: Coagulase Negative Staphylococci MR (methicillin resistant); assay: MIC by agar-dilution, Coagulase Negative Staphylococci MR; type: cell-based; details: inoculum 10^4 CFU/spot, 37° C., 24 hours
Procedure: as §1, §2

[3] = test system: Staphylococcus aureus MRQR (methicillin resistant quinolone resistant); assay: MIC by agar-dilution, Staphylococcus aureus MRQR; type: cell-based; details: inoculum 10^4 CFU/spot, 37° C., 24 hours
Procedure: as §1, §2

Enterococcus faecalis = assay: MIC by agar-dilution, Enterococcus faecalis; type: cell-based; details: agar with 5% defibrinated horse blood, 10^4 CFU/spot, 37° C., 5% carbon dioxide, 48 hours
Procedure: as §1, with “μg/ml. Streptococci and enterococci were tested on agar supplemented with 5% defibrinated horse blood, an inoculum of 10^4 CFU/spot and an incubation temperature of 37° C. in an atmosphere of 5% carbon dioxide for 48 hours—blood is required for the growth of some of the test organisms.” for “μg/ml.”

Bacillus subtilis = assay: MIC by agar-dilution, Bacillus subtilis; type: cell-based; details: inoculum 10^4 CFU/spot
Procedure: as §1

[4] = test system: Streptococcus pyogenes C203; assay: MIC by agar-dilution, Streptococcus pyogenes C203; type: cell-based; details: agar with 5% defibrinated horse blood, 10^4 CFU/spot, 37° C., 5% carbon dioxide, 48 hours
Procedure: as §1, with “μg/ml. Streptococci and enterococci were tested on agar supplemented with 5% defibrinated horse blood, an inoculum of 10^4 CFU/spot and an incubation temperature of 37° C. in an atmosphere of 5% carbon dioxide for 48 hours—blood is required for the growth of some of the test organisms.” for “μg/ml.”

[5] = test system: Staphylococcus aureus Oxford; assay: MIC by agar-dilution, Staphylococcus aureus Oxford; type: cell-based; details: inoculum 10^4 CFU/spot, 37° C., 24 hours
Procedure: as §1, §2

[6] = test system: Coagulase Negative Staphylococci MS (methicillin sensitive); assay: MIC by agar-dilution, Coagulase Negative Staphylococci MS; type: cell-based; details: inoculum 10^4 CFU/spot, 37° C., 24 hours
Procedure: as §1, §2

CS(=O)(=O)c1ccc(N2C[C@H](COc3ccon3)OC2=O)cc1 [Example 163, 3-(4-Methylsulfonylphenyl)-5(R)-(isoxazol-3-yloxymethyl)oxazolidin-2-one] gave a melting point of 180 °C.
For O=C([C@@H](O)CO)N1CC=C(c2ccc(N3C[C@H](COc4ccon4)OC3=O)cc2F)CC1 [Example 12, 5(R)-Isoxazol-3-yloxymethyl-3-(4-(1-(2(S),3-dihydroxypropanoyl)-1,2,5,6-tetrahydropyrid-4-yl)-3-fluorophenyl)oxazolidin-2-one], the MIC ([1]; read-out: MIC) was 0.5 µg/mL (≈ 1.12 µM), the MIC ([2]; read-out: MIC) was 0.5 µg/mL (≈ 1.12 µM) and the MIC ([3]; read-out: MIC) was 0.5 µg/mL (≈ 1.12 µM). The MIC (Enterococcus faecalis; read-out: MIC) was 1 µg/mL (≈ 2.24 µM), the MIC (Bacillus subtilis; read-out: MIC) was 0.25 µg/mL (≈ 0.559 µM) and the MIC ([4]; read-out: MIC) was 0.5 µg/mL (≈ 1.12 µM). The MIC ([5]; read-out: MIC) was 0.25 µg/mL (≈ 0.559 µM) and the MIC ([6]; read-out: MIC) was 0.13 µg/mL (≈ 0.291 µM).
With O=C([C@@H](O)CO)N1CC=C(c2ccc(N3C[C@H](COc4ccon4)OC3=O)cc2)CC1 [Example 41, 5(R)-Isoxazol-3-yloxymethyl-3-(4-(1-(2(S),3-dihydroxypropanoyl)-1,2,5,6-tetrahydropyrid-4-yl)phenyl)oxazolidin-2-one] the melting point was 200 to 202 °C (dec.).
With O=C1O[C@@H](COc2cnsn2)CN1c1ccc(C2=CCOCC2)c(F)c1 [Example 142, 5(R)-1,2,5-Thiadiazol-3-yloxymethyl-3-(4-[3,6-dihydro-(2H)-pyran-4-yl]-3-fluorophenyl)oxazolidin-2-one] the melting point was 146 to 148 °C.
Molecule O=C1O[C@@H](COc2cnsn2)CN1c1ccc(C2=CCOCC2)c(F)c1 [Example 10, 5(R)-(1,2,5-Thiadiazol-3-yloxymethyl)-3-(3-fluoro-4-(3,6-dihydro-(2H)-pyran-4-yl)phenyl)oxazolidin-2-one] has a melting point of 46 to 48 °C.
O=C([C@@H](O)CO)N1CC=C(c2c(F)cc(N3C[C@H](COc4ccon4)OC3=O)cc2F)CC1 [Example 18, 5(R)-Isoxazol-3-yloxymethyl-3-(4-(1-(2(S),3-dihydroxypropanoyl)-1,2,5,6-tetrahydropyrid-4-yl)-3,5-difluorophenyl)oxazolidin-2-one] showed an MIC ([1]; read-out: MIC) of 0.25 µg/mL (≈ 0.537 µM), an MIC ([2]; read-out: MIC) of 0.5 µg/mL (≈ 1.07 µM) and an MIC ([3]; read-out: MIC) of 0.5 µg/mL (≈ 1.07 µM). For the same molecule, the MIC (Enterococcus faecalis; read-out: MIC) was 0.5 µg/mL (≈ 1.07 µM), the MIC (Bacillus subtilis; read-out: MIC) was 0.25 µg/mL (≈ 0.537 µM) and the MIC ([4]; read-out: MIC) was 0.25 µg/mL (≈ 0.537 µM). It also gave an MIC ([5]; read-out: MIC) of 0.25 µg/mL (≈ 0.537 µM) and an MIC ([6]; read-out: MIC) of 0.13 µg/mL (≈ 0.279 µM).
O=C([C@H](O)CO)N1CC=C(c2ccc(N3C[C@H](COc4ccon4)OC3=O)cc2)CC1 [Example 40, 5(R)-Isoxazol-3-yloxymethyl-3-(4-(1-(2(R),3-dihydroxypropanoyl)-1,2,5,6-tetrahydropyrid-4-yl)phenyl)oxazolidin-2-one] gave a melting point of 138 to 144 °C.
In the case of O=C(C(O)CO)N1CC=C(c2c(F)cc(N3C[C@H](COc4ccon4)OC3=O)cc2F)CC1 (mixture of isomers) [Example 4, 5(R)-Isoxazol-3-yloxymethyl-3-(4-(1-(2(R,S),3-dihydroxypropanoyl)-1,2,5,6-tetrahydropyrid-4-yl)-3,5-difluorophenyl)-oxazolidin-2-one], the MIC ([1]; read-out: MIC) was 0.5 µg/mL, the MIC ([2]; read-out: MIC) was 0.5 µg/mL and the MIC ([3]; read-out: MIC) was 0.5 µg/mL. For the same molecule, the MIC (Enterococcus faecalis; read-out: MIC) was 1 µg/mL, the MIC (Bacillus subtilis; read-out: MIC) was 0.25 µg/mL and the MIC ([4]; read-out: MIC) was 0.5 µg/mL. It also gave an MIC ([5]; read-out: MIC) of 0.25 µg/mL and an MIC ([6]; read-out: MIC) of 0.13 µg/mL.
Work on O=C1O[C@@H](COc2cnsn2)CN1c1ccc(N2C[C@@H]3C[C@H]2CN3Cc2ccccc2)c(F)c1 [Example 154, 5(R)-1 ,2,5-Thiadiazol-3-yloxymethyl-3-(4-((1 S)(4S)-2-benzyl-2,5-diazabicyclo{2.2.1}heptan-5-yl)-3-fluorophenyl)oxazolidin-2-one] yielded a melting point of 97 to 98 °C.
With O=C(CO)N1CC=C(c2ccc(N3C[C@H](COc4cnsn4)OC3=O)cc2F)CC1 [Example 151, 5(R)-1,2,5-Thiadiazol-3-yloxymethyl-3-(4-(1-hydroxyacetyl-1,2,5,6-tetrahydropyrid-4-yl)-3-fluorophenyl)oxazolidin-2-one] the MIC [1] was 0.25 µg/mL (≈ 0.575 µM), the MIC [2] was 0.25 µg/mL (≈ 0.575 µM) and the MIC [3] was 0.25 µg/mL (≈ 0.575 µM). For the same molecule, the MIC (Enterococcus faecalis) was 0.25 µg/mL (≈ 0.575 µM), the MIC (Bacillus subtilis) was 0.13 µg/mL (≈ 0.299 µM) and the MIC [4] was 0.25 µg/mL (≈ 0.575 µM). It also gave an MIC [5] of 0.13 µg/mL (≈ 0.299 µM) and an MIC [6] of 0.13 µg/mL (≈ 0.299 µM).

Reference: patent US20030144263A1, “Oxazolidinone derivatives, process for their preparation and pharmaceutical compositions containing them” (Syngenta Limited, priority 1998, published 2003)
